PubChem BioAssay (NCI)
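All cell lines were grown in 96-well plates and treated with compound for 48 hours. The concentration for 50% growth inhibition is given as GI50. The concentration for full growth arrest is given as TGI.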

Experiments:
Test in all cases: growth of human tumour cells (NCI), 48 h
786-0 renal = tested on: 786-0 renal
A498 renal = tested on: A498 renal
A549 NSCLC = tested on: A549 NSCLC
BT-549 breast = tested on: BT-549 breast
CCRF-CEM leukemia = tested on: CCRF-CEM leukemia
DU-145 prostate = tested on: DU-145 prostate
EKVX NSCLC = tested on: EKVX NSCLC
HCC-2998 colon = tested on: HCC-2998 colon
HCT-15 colon = tested on: HCT-15 colon
HOP-62 NSCLC = tested on: HOP-62 NSCLC
HOP-92 NSCLC = tested on: HOP-92 NSCLC
HS 578T breast = tested on: HS 578T breast
IGROV1 ovarian = tested on: IGROV1 ovarian
KM12 colon = tested on: KM12 colon
MALME-3M melanoma = tested on: MALME-3M melanoma
MCF7 breast = tested on: MCF7 breast
MDA-MB-231 breast = tested on: MDA-MB-231 breast
MDA-MB-435 = tested on: MDA-MB-435
NCI-H226 lung = tested on: NCI-H226 lung
NCI-H23 lung = tested on: NCI-H23 lung
NCI-H460 lung = tested on: NCI-H460 lung
NCI-H522 lung = tested on: NCI-H522 lung
NCI/ADR-RES ovarian = tested on: NCI/ADR-RES ovarian
OVCAR-3 ovarian = tested on: OVCAR-3 ovarian
OVCAR-4 ovarian = tested on: OVCAR-4 ovarian
OVCAR-5 ovarian = tested on: OVCAR-5 ovarian
OVCAR-8 ovarian = tested on: OVCAR-8 ovarian
PC-3 prostate = tested on: PC-3 prostate
RPMI-8226 leukemia = tested on: RPMI-8226 leukemia
RXF 393 renal = tested on: RXF 393 renal
SF-268 CNS = tested on: SF-268 CNS
SF-295 CNS = tested on: SF-295 CNS
SF-539 CNS = tested on: SF-539 CNS
SK-MEL-28 melanoma = tested on: SK-MEL-28 melanoma
SK-MEL-5 melanoma = tested on: SK-MEL-5 melanoma
SK-OV-3 ovarian = tested on: SK-OV-3 ovarian
SN12C renal = tested on: SN12C renal
SNB-19 CNS = tested on: SNB-19 CNS
SNB-75 CNS = tested on: SNB-75 CNS
SW-620 colon = tested on: SW-620 colon
TK-10 renal = tested on: TK-10 renal
U251 CNS = tested on: U251 CNS
UACC-62 melanoma = tested on: UACC-62 melanoma
UO-31 renal = tested on: UO-31 renal

With `O=C1C(Cl)=C(NCCCN(CCCNC2=C(Cl)C(=O)c3ccccc3C2=O)C2=C(Cl)C(=O)c3ccccc3C2=O)C(=O)c2ccccc21` the GI50 (786-0 renal) was 4.62 µM, the TGI (786-0 renal) was 18.2 µM and the GI50 (A498 renal) was 19.6 µM. For the same compound, the TGI (A498 renal) was 39.4 µM, the GI50 (A549 NSCLC) was 3.43 µM and the TGI (A549 NSCLC) was > 100 µM. The GI50 (BT-549 breast) was 2.5 µM, the TGI (BT-549 breast) was 13.5 µM and the GI50 (CCRF-CEM leukemia) was 3.34 µM. The TGI (CCRF-CEM leukemia) was > 100 µM, the GI50 (DU-145 prostate) was 1.68 µM and the TGI (DU-145 prostate) was 3.06 µM. For the same compound, the GI50 (EKVX NSCLC) was 2.62 µM, the TGI (EKVX NSCLC) was 13.9 µM and the GI50 (HCC-2998 colon) was 2.45 µM. The TGI (HCC-2998 colon) was 6.37 µM, the GI50 (HCT-15 colon) was 1.66 µM and the TGI (HCT-15 colon) was 3.78 µM. For the same compound, the GI50 (HOP-62 NSCLC) was 3.8 µM, the TGI (HOP-62 NSCLC) was 42.3 µM and the GI50 (HOP-92 NSCLC) was 2.23 µM. The TGI (HOP-92 NSCLC) was 14 µM, the GI50 (HS 578T breast) was 2.88 µM and the TGI (HS 578T breast) was > 100 µM. For the same compound, the GI50 (IGROV1 ovarian) was 1.76 µM, the TGI (IGROV1 ovarian) was 6.13 µM and the GI50 (KM12 colon) was 3 µM. It also gave a TGI (KM12 colon) of 12.8 µM, a GI50 (MALME-3M melanoma) of 1.62 µM and a TGI (MALME-3M melanoma) of 3.29 µM. The GI50 (MCF7 breast) was 1.48 µM, the TGI (MCF7 breast) was 3.89 µM and the GI50 (MDA-MB-231 breast) was 1.93 µM. It also gave a GI50 (MDA-MB-435) of 1.74 µM, a TGI (MDA-MB-435) of 3.26 µM and a GI50 (NCI-H226 lung) of 17.3 µM. It also gave a TGI (NCI-H226 lung) of 35.1 µM, a GI50 (NCI-H23 lung) of 1.69 µM and a TGI (NCI-H23 lung) of 5.26 µM. For the same compound, the GI50 (NCI-H460 lung) was 3.02 µM, the TGI (NCI-H460 lung) was > 100 µM and the GI50 (NCI-H522 lung) was 1.97 µM. For the same compound, the TGI (NCI-H522 lung) was 4.98 µM, the GI50 (NCI/ADR-RES ovarian) was 4.06 µM and the TGI (NCI/ADR-RES ovarian) was > 100 µM. For the same compound, the GI50 (OVCAR-3 ovarian) was 1.71 µM, the TGI (OVCAR-3 ovarian) was 5.71 µM and the GI50 (OVCAR-4 ovarian) was 1.49 µM. For the same compound, the TGI (OVCAR-4 ovarian) was 2.85 µM, the GI50 (OVCAR-5 ovarian) was 4.85 µM and the TGI (OVCAR-5 ovarian) was 17.2 µM. The GI50 (OVCAR-8 ovarian) was 3 µM, the TGI (OVCAR-8 ovarian) was 10.5 µM and the GI50 (PC-3 prostate) was 2.15 µM. The TGI (PC-3 prostate) was 16.7 µM, the GI50 (RPMI-8226 leukemia) was 3.8 µM and the TGI (RPMI-8226 leukemia) was > 100 µM. For the same compound, the GI50 (RXF 393 renal) was 10.7 µM, the TGI (RXF 393 renal) was 22.5 µM and the GI50 (SF-268 CNS) was 2.76 µM. For the same compound, the TGI (SF-268 CNS) was 18.8 µM, the GI50 (SF-295 CNS) was 3.07 µM and the TGI (SF-295 CNS) was 14.7 µM. The GI50 (SF-539 CNS) was 2.45 µM, the TGI (SF-539 CNS) was 6.71 µM and the GI50 (SK-MEL-28 melanoma) was 2.15 µM. It also gave a TGI (SK-MEL-28 melanoma) of 4.53 µM, a GI50 (SK-MEL-5 melanoma) of 1.18 µM and a TGI (SK-MEL-5 melanoma) of 2.43 µM. It also gave a GI50 (SK-OV-3 ovarian) of 18.4 µM, a TGI (SK-OV-3 ovarian) of 37.9 µM and a GI50 (SN12C renal) of 1.51 µM. The TGI (SN12C renal) was 3.51 µM, the GI50 (SNB-19 CNS) was 3.79 µM and the TGI (SNB-19 CNS) was 18.9 µM. The GI50 (SNB-75 CNS) was 20.6 µM, the TGI (SNB-75 CNS) was 39.3 µM and the GI50 (SW-620 colon) was 2.21 µM. It also gave a TGI (SW-620 colon) of 4.9 µM, a GI50 (TK-10 renal) of 17.9 µM and a TGI (TK-10 renal) of 36.9 µM. It also gave a GI50 (U251 CNS) of 2.66 µM, a TGI (U251 CNS) of 6.27 µM and a GI50 (UACC-62 melanoma) of 1.98 µM. The TGI (UACC-62 melanoma) was 4.69 µM, the GI50 (UO-31 renal) was 1.25 µM and the TGI (UO-31 renal) was 5.93 µM.
